We go through seven molecules from ChEMBL document CHEMBL1136408, “Structure-activity and crystallographic analysis of benzophenone derivatives-the potential anticancer agents” (Bioorg Med Chem Lett, 2003).

One assay concerns CPT30 cell line. The assay is described as follows: Inhibitory concentration against camptothecin (CPT) resistant cell line using tetrazolium dye reduction assay (MTT). The class given is functional, cell-based. As to conditions: Homo sapiens.
A further assay concerns HONE1 cell line. Put plainly: Inhibitory concentration against human NPC cancer cell line using tetrazolium dye reduction assay (MTT). Type of assay: functional, cell-based.
Assay [1] concerns KB. Put plainly: Inhibitory concentration against camptothecin (CPT) resistant cell line (KB-100) using tetrazolium dye reduction assay (MTT). As to conditions: Homo sapiens. The class given is functional, cell-based.
Assay [2] deals with KB. Put plainly: Inhibitory concentration against taxol resistant cell line (KBs5) at a concentration of 50 nM using tetrazolium dye reduction assay (MTT). Type of assay: functional, cell-based. As to conditions: Homo sapiens.
For assay [3], the system named is KB. Put plainly: Inhibitory concentration against VP16 resistant cell line (KB-7D) using tetrazolium dye reduction assay (MTT). Type of assay: functional, cell-based. As to conditions: Homo sapiens.
In assay [4] the test system is KB. Put plainly: Inhibitory concentration against vincristine-resistant cell line (KB-Vin 10) using tetrazolium dye reduction assay (MTT). As to conditions: Homo sapiens. Type of assay: functional, cell-based.
The test system of assay [5] is KB. Put plainly: Inhibitory concentration against human oral cancer cell line (KB) using tetrazolium dye reduction assay (MTT). The class given is functional, cell-based.
For assay [6], the system named is KB 3-1. Put plainly: Compound was tested for cell arrest at G2/M phase at 100 nM concentration in KB human cancer cells. Conditions: read-out: Inhibition. Type of assay: functional.
For assay [7], the system named is KB 3-1. Put plainly: Compound was tested for cell arrest at G2/M phase at 25 nM concentration in KB human cancer cells. The class given is functional. Conditions: read-out: Inhibition.
For assay [8], the system named is KB 3-1. The assay is described as follows: Compound was tested for cell arrest at G2/M phase at 50 nM concentration in KB human cancer cells. Type of assay: functional. As to conditions: read-out: Inhibition.
Assay [9] deals with KB 3-1. Put plainly: Compound was tested for cell arrest at Go/G1 phase at 25 nM concentration in KB human cancer cells. Type of assay: functional. Conditions: read-out: Inhibition.
Assay [10] concerns KB 3-1. Put plainly: Compound was tested for cell arrest at Go/G1 phase at 50 nM concentration in KB human cancer cells. Type of assay: functional. As to conditions: read-out: Inhibition.
The test system of assay [11] is KB 3-1. The assay is described as follows: Compound was tested for cell arrest at S phase at 100 nM concentration in KB human cancer cells. The class given is functional. Conditions: read-out: Inhibition.
The subject of assay [12] is KB 3-1. The assay is described as follows: Compound was tested for cell arrest at S phase at 25 nM concentration in KB human cancer cells. The class given is functional. As to conditions: read-out: Inhibition.
The subject of assay [13] is KB 3-1. The assay is described as follows: Compound was tested for cell arrest at sub-G1 phase at 100 nM concentration in KB human cancer cells. Type of assay: functional. As to conditions: read-out: Inhibition.
Assay [14] concerns KB 3-1. Put plainly: Compound was tested for cell arrest at sub-G1 phase at 25 nM concentration in KB human cancer cells. Type of assay: functional. As to conditions: for Percent of cells arrested in sub-G1 phase at 0.025 µM: Homo sapiens, KB 3-1, read-out: Inhibition.
The subject of assay [15] is KB 3-1. Put plainly: Compound was tested for cell arrest at sub-G1 phase at 50 nM concentration in KB human cancer cells. Conditions: read-out: Inhibition. Type of assay: functional.
Assay [16] concerns KB 3-1. Put plainly: Compound was tested for cell arrest at Go/G1 phase at 100 nM concentration in KB human cancer cells. As to conditions: read-out: Inhibition. The class given is functional.
In assay [17] the test system is KB 3-1. The assay is described as follows: Compound was tested for cell arrest at S phase at 50 nM concentration in KB human cancer cells. Type of assay: functional. As to conditions: read-out: Inhibition.

With `CNc1ccc(Cl)cc1C(=O)c1cc(OC)c(OC)c(OC)c1`, the IC50 in the assay with CPT30 cell line stood at 5350 nM; in the assay with HONE1 cell line, 5140 nM; with KB [1], 7160 nM; with KB [2], 2290 nM; in the assay on KB [3] it was 5410 nM; with KB [4], 5850 nM. In the assay on KB [5], this molecule registered an IC50 of 6080 nM.

Consider `COc1cc(C(=O)c2cc(Cl)ccc2N)cc(OC)c1OC`, for which the IC50 with CPT30 cell line came to 60.3 nM; in the assay with HONE1 cell line it was 64.5 nM; in the assay with KB [1], 156 nM; in the assay with KB [2], 71 nM; in the assay with KB [3], 104 nM; in the assay on KB [4], 97.2 nM. The molecule also came in with an IC50 in the assay on KB [5] of 90.4 nM. The percent of cells arrested in G2/M phase at 0.1 µM with KB 3-1 [6] is 73.2%. Moreover, the percent of cells arrested in G2/M phase at 0.025 µM in the assay on KB 3-1 [7] worked out at 17.3%. For the same molecule, in the assay with KB 3-1 [8], the Cells arrested in G2/M phase (%) at 0.05 µM was 17.3%. Also, in the assay on KB 3-1 [9], the percent of cells in G0/G1 phase at 0.025 µM worked out at 61.7%. The % cells in G0/G1 phase at 0.05 µM in the assay on KB 3-1 [10] was determined as 61.7%. Further, in the assay with KB 3-1 [11], the Cells arrested in S phase at 0.1 µM is 7.1%. Moreover, the Cells arrested in S phase (%) at 0.025 µM in the assay on KB 3-1 [12] was determined as 14.3%. Moreover, the Percent of cells in sub-G1 phase at 0.1 µM with KB 3-1 [13] came to 13.9%. In the assay with KB 3-1 [14], this molecule registered a Percent of cells arrested in sub-G1 phase of 6.5%. The Cells in sub-G1 phase at 0.05 µM with KB 3-1 [15] was 6.4%. Moreover, the percent cells arrested in G0/G1 phase at 0.1 µM in the assay on KB 3-1 [16] was 5.7%. The percent of cells arrested in S phase at 0.05 µM with KB 3-1 [17] is 14.6%.

`COc1ccc(C(=O)c2cc(OC)c(OC)c(OC)c2)c(N)c1`: the IC50 is 37.3 nM in the assay on CPT30 cell line; 35.8 nM in the assay on HONE1 cell line; 18.9 nM with KB [1]; 25.6 nM with KB [2]; 29.3 nM in the assay on KB [3]; 45.8 nM with KB [4]. This molecule showed an IC50 in the assay on KB [5] of 25.8 nM.

As to `COc1cc(C(=O)c2cc(Cl)ccc2O)cc(OC)c1OC`, the IC50 with CPT30 cell line was determined as 5000 nM; in the assay with HONE1 cell line, 6110 nM; in the assay on KB [1], 4070 nM; in the assay with KB [2] it was 4550 nM; with KB [3], 5450 nM; in the assay on KB [4], 8340 nM. Further, half-maximal inhibition in the assay on KB [5] (IC50) required 5460 nM. The percent of cells arrested in G2/M phase at 0.1 µM in the assay on KB 3-1 [6] was determined as 16%. In addition, the percent of cells arrested in G2/M phase at 0.025 µM in the assay on KB 3-1 [7] was 18.3%. For the same molecule, the Cells arrested in G2/M phase (%) at 0.05 µM in the assay with KB 3-1 [8] came out at 18.9%. Also, the percent of cells in G0/G1 phase at 0.025 µM in the assay with KB 3-1 [9] amounted to 61.8%. In addition, in the assay on KB 3-1 [10], the % cells in G0/G1 phase at 0.05 µM turned out to be 59.4%. For the same molecule, the Cells arrested in S phase at 0.1 µM in the assay with KB 3-1 [11] is 11.8%. The Cells arrested in S phase (%) at 0.025 µM in the assay on KB 3-1 [12] came to 14.6%. Further, in the assay with KB 3-1 [13], the Percent of cells in sub-G1 phase at 0.1 µM stood at 26.5%. Moreover, the Percent of cells arrested in sub-G1 phase at 0.025 µM with KB 3-1 [14] was 5.3%. Moreover, in the assay on KB 3-1 [15], the Cells in sub-G1 phase at 0.05 µM amounted to 5.7%. Also, the percent cells arrested in G0/G1 phase at 0.1 µM in the assay with KB 3-1 [16] came out at 45.4%. Also, in the assay with KB 3-1 [17], the percent of cells arrested in S phase at 0.05 µM came to 15.9%.

`COc1ccc(N)c(C(=O)c2cc(OC)c(OC)c(OC)c2)c1`: the IC50 with CPT30 cell line came to 41 nM; in the assay with HONE1 cell line, 59.2 nM; in the assay with KB [1], 22.5 nM; with KB [2], 34.7 nM; in the assay with KB [3], 38.1 nM; in the assay with KB [4], 48.6 nM. Besides, the midpoint of inhibition in the assay with KB [5], the IC50, lay at 38.5 nM.

For `COc1ccc(/C=C\c2cc(OC)c(OC)c(OC)c2)cc1O` [COMBRETASTATIN A4], the IC50 in the assay with CPT30 cell line was determined as 6.9 nM; in the assay with HONE1 cell line, 6.5 nM; with KB [1], 7.3 nM; in the assay with KB [2], 7 nM; in the assay on KB [3], 7.9 nM; in the assay with KB [4] it was 9.5 nM. In the assay with KB [5], this molecule showed an IC50 of 6.2 nM. Also, the percent of cells arrested in G2/M phase at 0.1 µM in the assay on KB 3-1 [6] worked out at 72.3%. Besides, the percent of cells arrested in G2/M phase at 0.025 µM in the assay with KB 3-1 [7] was 61.6%. Besides, the Cells arrested in G2/M phase (%) at 0.05 µM in the assay on KB 3-1 [8] is 63.2%. Also, in the assay with KB 3-1 [9], the percent of cells in G0/G1 phase at 0.025 µM came out at 8.9%. For the same molecule, the % cells in G0/G1 phase at 0.05 µM with KB 3-1 [10] is 9.3%. For the same molecule, the Cells arrested in S phase at 0.1 µM in the assay with KB 3-1 [11] came out at 10.6%. Moreover, the Cells arrested in S phase (%) at 0.025 µM in the assay on KB 3-1 [12] was 11%. Moreover, the Percent of cells in sub-G1 phase at 0.1 µM in the assay with KB 3-1 [13] is 11.6%. Also, the Percent of cells arrested in sub-G1 phase at 0.025 µM with KB 3-1 [14] was 18.3%. For the same molecule, the Cells in sub-G1 phase at 0.05 µM in the assay with KB 3-1 [15] worked out at 16.8%. Besides, in the assay on KB 3-1 [16], the percent cells arrested in G0/G1 phase at 0.1 µM was determined as 5.2%. For the same molecule, the percent of cells arrested in S phase at 0.05 µM in the assay on KB 3-1 [17] was 10.6%.

With `COc1ccc(C(=O)c2cc(OC)c(OC)c(OC)c2)cc1O` [PHENSTATIN], the IC50 with CPT30 cell line was determined as 37.2 nM; with HONE1 cell line it was 138 nM; with KB [1] it was 34.8 nM; with KB [2], 184 nM; in the assay on KB [3] it was 180 nM; in the assay on KB [4] it was 34.1 nM. In the assay on KB [5], this molecule came in with an IC50 of 129 nM. In the assay with KB 3-1 [6], the percent of cells arrested in G2/M phase at 0.1 µM turned out to be 73.5%. In the assay on KB 3-1 [7], the percent of cells arrested in G2/M phase at 0.025 µM is 39.6%. Also, in the assay on KB 3-1 [8], the Cells arrested in G2/M phase (%) at 0.05 µM amounted to 63.9%. Further, the percent of cells in G0/G1 phase at 0.025 µM with KB 3-1 [9] was 17.6%. Further, in the assay with KB 3-1 [10], the % cells in G0/G1 phase at 0.05 µM came to 7.6%. Further, in the assay on KB 3-1 [11], the Cells arrested in S phase at 0.1 µM turned out to be 7.7%. Moreover, the Cells arrested in S phase (%) at 0.025 µM with KB 3-1 [12] is 9.9%. Further, in the assay on KB 3-1 [13], the Percent of cells in sub-G1 phase at 0.1 µM is 13%. The Percent of cells arrested in sub-G1 phase at 0.025 µM in the assay on KB 3-1 [14] came to 32.9%. Besides, in the assay with KB 3-1 [15], the Cells in sub-G1 phase at 0.05 µM was determined as 17.8%. Besides, in the assay on KB 3-1 [16], the percent cells arrested in G0/G1 phase at 0.1 µM was found to be 5.6%. In addition, the percent of cells arrested in S phase at 0.05 µM with KB 3-1 [17] was 10.5%.

One may read the IC50 as the concentration that gives 50% inhibition.
